From ChEMBL document CHEMBL3217464, “Antimicrobial activity and mode of action of novel, N-terminal tagged tetra-peptidomimetics” (Medchemcomm, 2013)
Converted amounts (≈) assume the structure as drawn. The source made the active and inactive calls. The calls are words filed in the database; no cut-off is given here. Where a SMILES comes first, the peptide text is derived from it. [ ]: non-standard residue; d: D form. The star is where a group is joined. Benzoyl(4-(biphenyl-4-yl)) = O=C(c1ccc(-c2ccc(-c3ccccc3)cc2)cc1)*; Linoleoyl = CCCCC/C=C\C/C=C\CCCCCCCC(=O)*; NMeL = CN[C@@H](CC(C)C)C(=O)O; NMeV = CN[C@H](C(=O)O)C(C)C; X1 = Nc1ccc(/C=C/C(=O)*)cc1; Orn = NCCC[C@H](N)C(=O)O; 2Abz = Nc1ccccc1C(=O)O

Experiments:
[1] = Induction of membrane permeabilization in POPC/POPG (7:3 w/w) LUVs assessed as graded leakage of encapsulated calcein dye at 41.01 ug/ml after 5 mins by spectrofluorimeter analysis
Lipid bilayer [2] = assay: Binding affinity to bacterial membrane mimic POPC/POPG (7:3 w/w) SUVs assessed as blue shift in tryptophan emission maxima at 3 uM after 2 mins by spectrofluorimeter analysis
[3] = Hemolytic activity against human erythrocytes assessed as hemoglobin release up to 500 ug/ml after 1 hr by ELISA; assay type: ADME, cell-based; details: erythrocyte
Staphylococcus aureus [4] = assay: Antibacterial activity against methicillin-resistant Staphylococcus aureus ATCC 33591 after 18 hrs by CLSI microdilution broth assay; assay type: functional; details: ATCC 33591, 18 h
Bacillus subtilis = assay: Antibacterial activity against Bacillus subtilis ATCC 6633 after 18 hrs by CLSI microdilution broth assay; assay type: functional; details: ATCC 6633, 18 h
Staphylococcus aureus [5] = assay: Induction of membrane depolarization in methicillin-resistant Staphylococcus aureus ATCC 33591 at 12.5 ug/ml by DiSC3(5) dye by fluorimetric assay; assay type: functional
Acinetobacter baumannii = assay: Antibacterial activity against Acinetobacter baumannii ATCC 19606 after 18 hrs by CLSI microdilution broth assay; assay type: functional; details: ATCC 19606, 18 h
Lipid bilayer [6] = assay: Binding affinity to mammalian membrane mimic POPC SUVs assessed as blue shift in tryptophan emission maxima at 3 uM after 2 mins by spectrofluorimeter analysis
Staphylococcus aureus [7] = assay: Antibacterial activity against Staphylococcus aureus ATCC 29213 after 18 hrs by CLSI microdilution broth assay; assay type: functional; details: ATCC 29213, 18 h
Escherichia coli = assay: Antibacterial activity against Escherichia coli ATCC 11775 after 18 hrs by CLSI microdilution broth assay; assay type: functional; details: ATCC 11775, 18 h
Pseudomonas aeruginosa = assay: Antibacterial activity against Pseudomonas aeruginosa ATCC 25668 after 18 hrs by CLSI microdilution broth assay; assay type: functional; details: ATCC 25668, 18 h
[8] = Induction of membrane permeabilization in POPC/POPG (7:3 w/w) LUVs assessed as burst release of calcein dye at 5.68 ug/ml after 5 mins by spectrofluorimeter analysis
Candida albicans = assay: Antifungal activity against Candida albicans assessed as growth inhibition up to 125 ug/ml by disk diffusion method; assay type: functional, organism-based
Staphylococcus aureus [9] = assay: Induction of membrane depolarization in methicillin-resistant Staphylococcus aureus ATCC 33591 by DiSC3(5) dye by fluorimetric assay; assay type: functional, organism-based
Staphylococcus aureus [10] = assay: Induction of morphological alterations in methicillin-resistant Staphylococcus aureus ATCC 33591 assessed as cell clustering and ruptured membrane at 5XMIC after 30 mins by scanning electron microscopy; assay type: functional, organism-based
Aspergillus fumigatus = assay: Antifungal activity against Aspergillus fumigatus assessed as growth inhibition up to 125 ug/ml by disk diffusion method; assay type: functional, organism-based
[11] = Stability of the compound assessed as compound digestion at 100 ug/ml after 10 hrs by RP-HPLC analysis in presence of proteinase-K; assay type: ADME; details: read-out: Drug degradation
Staphylococcus aureus [12] = assay: Induction of membrane depolarization in methicillin-resistant Staphylococcus aureus ATCC 33591 at 7.5 ug/ml by DiSC3(5) dye by fluorimetric assay; assay type: functional
[13] = Binding affinity to gram-negative outer membrane LPS micelles by circular dichroism spectrophotometry
[14] = Stability of the compound assessed as compound digestion at 100 ug/ml after 24 hrs by RP-HPLC analysis in presence of proteinase-K; assay type: ADME; details: read-out: Drug degradation
Lipid bilayer [15] = assay: Binding affinity to mammalian membrane mimic POPC SUVs assessed as red shift in tryptophan emission maxima at 3 uM after 2 mins by spectrofluorimeter analysis
[16] = Induction of membrane permeabilization in POPC/POPG (7:3 w/w) LUVs assessed as leakage of encapsulated calcein dye at 14.01 ug/ml after 5 mins by spectrofluorimeter analysis
Staphylococcus aureus [17] = assay: Induction of morphological alterations in methicillin-resistant Staphylococcus aureus ATCC 33591 assessed as rough and damaged cell surface and formation of blebs and massive rupturing at 5XMIC after 30 mins by scanning electron microscopy; assay type: functional, organism-based
Lipid bilayer [18] = assay: Binding affinity to bacterial membrane mimic PC:PG (7:3 w/w) LUVs by circular dichroism spectrophotometry
[19] = Hemolytic activity against human erythrocytes assessed as hemoglobin release at 500 ug/ml after 1 hr by ELISA; assay type: ADME, cell-based, Erythrocyte; details: read-out: Activity

SMILES	Activity (Lipid bilayer [2])	Activity [3]	MIC (Staphylococcus aureus [4])	MIC (Bacillus subtilis)	Activity (Staphylococcus aureus [5])	MIC (Acinetobacter baumannii)	Tryptophan emission maximum blue shift (Lipid bilayer [6])	MIC (Staphylococcus aureus [7])	MIC (Escherichia coli)	MIC (Pseudomonas aeruginosa)	Activity [8]	further results
NCCC[C@H](NC(=O)c1ccccc1N)C(=O)N[C@@H](CCCN)C(=O)N[C@@H](Cc1c[nH]c2ccccc12)C(=O)N[C@@H](Cc1c[nH]c2ccccc12)C(N)=O (H-[2Abz][Orn][Orn]WW-NH2)	5 nm	Non-toxic	64 µg/mL (≈ 86.9 µM)	64 µg/mL (≈ 86.9 µM)	8.9%	64 µg/mL (≈ 86.9 µM)	1 nm	64 µg/mL (≈ 86.9 µM)	64 µg/mL (≈ 86.9 µM)	16 µg/mL (≈ 21.7 µM)		Activity [1]: 69.9%
CN[C@@H](CC(C)C)C(=O)N[C@@H](CCCN)C(=O)N[C@@H](CCCN)C(=O)N[C@@H](Cc1c[nH]c2ccccc12)C(=O)N[C@@H](Cc1c[nH]c2ccccc12)C(N)=O (H-[NMeL][Orn][Orn]WW-NH2)	4 nm	Non-toxic	256 µg/mL (≈ 344 µM)	64 µg/mL (≈ 85.9 µM)	18.9%	128 µg/mL (≈ 172 µM)	1 nm	128 µg/mL (≈ 172 µM)	64 µg/mL (≈ 85.9 µM)	128 µg/mL (≈ 172 µM)		
CN[C@H](C(=O)N[C@@H](CCCN)C(=O)N[C@@H](CCCN)C(=O)N[C@@H](Cc1c[nH]c2ccccc12)C(=O)N[C@@H](Cc1c[nH]c2ccccc12)C(N)=O)C(C)C (H-[NMeV][Orn][Orn]WW-NH2)	3 nm	Non-toxic	256 µg/mL (≈ 350 µM)	128 µg/mL (≈ 175 µM)	17.2%	64 µg/mL (≈ 87.6 µM)	0 nm	128 µg/mL (≈ 175 µM)	256 µg/mL (≈ 350 µM)	128 µg/mL (≈ 175 µM)		Activity [1]: 41.8%
NCCC[C@H](NC(=O)[C@@H](N)CCCN)C(=O)N[C@@H](Cc1c[nH]c2ccccc12)C(=O)N[C@@H](Cc1c[nH]c2ccccc12)C(N)=O (H-[Orn][Orn]WW-NH2)	3 nm	Non-toxic		512 µg/mL (≈ 829 µM)	5.6%	512 µg/mL (≈ 829 µM)	2 nm	128 µg/mL (≈ 207 µM)	512 µg/mL (≈ 829 µM)	256 µg/mL (≈ 414 µM)		
CCCCC/C=C\C/C=C\CCCCCCCC(=O)N[C@@H](CCCN)C(=O)N[C@@H](CCCN)C(=O)N[C@@H](Cc1c[nH]c2ccccc12)C(=O)N[C@@H](Cc1c[nH]c2ccccc12)C(N)=O (Linoleoyl-[Orn][Orn]WW-NH2)	10 nm	Non-toxic	4 µg/mL (≈ 4.54 µM)	4 µg/mL (≈ 4.54 µM)	100%	2 µg/mL (≈ 2.27 µM)	2 nm	2 µg/mL (≈ 2.27 µM)	2 µg/mL (≈ 2.27 µM)	2 µg/mL (≈ 2.27 µM)	72.3%	growth inhibition (GI) (Candida albicans): inactive; Activity (Staphylococcus aureus [9]): Dose-dependent effect; Activity (Staphylococcus aureus [10]): Active; growth inhibition (GI) (Aspergillus fumigatus): inactive; metabolised at 10 h, 100 ug/ml [11]: 17%; Activity (Staphylococcus aureus [12]): 84%; Activity [13]: Active; metabolised at 24 h, 100 ug/ml [14]: 36%
NCCC[C@H](NC(=O)/C=C/c1ccc(N)cc1)C(=O)N[C@@H](CCCN)C(=O)N[C@@H](Cc1c[nH]c2ccccc12)C(=O)N[C@@H](Cc1c[nH]c2ccccc12)C(N)=O (X1-[Orn][Orn]WW-NH2)	2 nm	Non-toxic	128 µg/mL (≈ 168 µM)	32 µg/mL (≈ 41.9 µM)	16.8%	64 µg/mL (≈ 83.9 µM)		64 µg/mL (≈ 83.9 µM)	32 µg/mL (≈ 41.9 µM)	16 µg/mL (≈ 21 µM)	58.5%	Activity (Lipid bilayer [15]): 2 nm; Activity [16]: 68.3%
NCCC[C@H](NC(=O)c1ccc(-c2ccc(-c3ccccc3)cc2)cc1)C(=O)N[C@@H](CCCN)C(=O)N[C@@H](Cc1c[nH]c2ccccc12)C(=O)N[C@@H](Cc1c[nH]c2ccccc12)C(N)=O ({Benzoyl(4-(biphenyl-4-yl))}-[Orn][Orn]WW-NH2)	30 nm		8 µg/mL (≈ 9.15 µM)	2 µg/mL (≈ 2.29 µM)		2 µg/mL (≈ 2.29 µM)	2 nm	2 µg/mL (≈ 2.29 µM)	2 µg/mL (≈ 2.29 µM)	4 µg/mL (≈ 4.58 µM)	76.4%	growth inhibition (GI) (Candida albicans): inactive; Activity (Staphylococcus aureus [17]): Active; Activity (Staphylococcus aureus [9]): Dose-dependent effect; Activity (Lipid bilayer [18]): Active; hemolysis at 1 h, 500 ug/ml [19]: 50%; growth inhibition (GI) (Aspergillus fumigatus): inactive; metabolised at 10 h, 100 ug/ml [11]: 14%; Activity (Staphylococcus aureus [12]): 81%
CN(C)[C@@H]1C(O)=C(C(N)=O)C(=O)[C@@]2(O)C(O)=C3C(=O)c4c(O)cccc4[C@@](C)(O)[C@H]3C[C@@H]12 [TETRACYCLINE]			> 50 µg/mL					0.3 µg/mL (≈ 0.675 µM)	0.3 µg/mL (≈ 0.675 µM)	0.3 µg/mL (≈ 0.675 µM)		
